Values quoted from earlier work in patent US9688668B2, “Long chain base sphingosine kinase inhibitors” (UNIVERSITY OF VIRGINIA PATENT FOUNDATION, priority 2012, dated 2017).

Target: sphingosine kinases
Settings: background statement; read-out: typical KI value; cited from earlier work

**Q.** With `CCCCCCCCCCCCCCC[C@H](O)[C@@H](N)CO` (racemic) [DL-threo-dihydrosphingosine] as the molecule, how does the Ki read?
**A.** Its Ki is under 10 µM.
